According to the supplement of paper PMC4862054:

Assays:
Conditions in all cases: incubation time: 72 h
[1] = system: MDA-MB-231; experiment: normalised viability (% of control), CellTiter-Blue; higher = more viable cells (100 = DMSO, 0 = benzethonium chloride kill control)
Description: (§1)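 DSRT, CellTiter-Blue viability, 72 h incubation. Signal is normalised to DMSO and benzethonium chloride controls. Value is the normalised response at dose 1.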

[2] = system: HCC1937; experiment: as above
Description: as §1

[3] = system: MDA-MB-453; experiment: as above
Description: as §1

[4] = system: Hs578T; experiment: as above
Description: as §1

[5] = system: BT-549; experiment: as above
Description: as §1

[6] = system: MFM-223; experiment: as above
Description: as §1

[7] = system: HCC1143; experiment: as above
Description: as §1

[8] = system: BT-474; experiment: as above
Description: as §1

[9] = system: CAL-120; experiment: as above
Description: as §1

[10] = system: DU-4475; experiment: as above
Description: as §1

[11] = system: MDA-MB-468; experiment: as above
Description: as §1

[12] = system: CAL-85-1; experiment: as above
Description: as §1

[13] = system: HDQ-P1; experiment: as above
Description: as §1

[14] = system: SK-BR-3; experiment: as above
Description: as §1

[15] = system: HCC1599; experiment: as above
Description: as §1

[16] = system: CAL-148; experiment: as above
Description: as §1

[17] = system: MDA-MB-436; experiment: as above
Description: as §1

[18] = system: CAL-51; experiment: as above
Description: as §1

[19] = system: MDA-MB-231; experiment: normalised response (% of control), CellTiter-Glo; higher = more viable cells (100 = DMSO, 0 = benzethonium chloride kill control)
Procedure, shortened: (§2)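 Breast cancer cell lines (20 µl suspension) were seeded into 384-well plates holding compound at 5 concentrations in 10-fold steps over a compound-specific 10,000-fold range, then incubated 72 h. CellTox Green fluorescence (485/520 nm) was read first, then CellTiter-Glo luminescence after 10 min at room temperature. Each plate was normalised to 0.1 % DMSO (100) and a positive kill control (0). Each value is the normalised signal at a single concentration of the series.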

[20] = system: HCC1937; experiment: as above
Procedure, shortened: as §2

[21] = system: MDA-MB-453; experiment: as above
Procedure, shortened: as §2

[22] = system: Hs578T; experiment: as above
Procedure, shortened: as §2

[23] = system: MCF-10A; experiment: as above
Procedure, shortened: as §2

[24] = system: BT-549; experiment: as above
Procedure, shortened: as §2

[25] = system: MFM-223; experiment: as above
Procedure, shortened: as §2

[26] = system: HCC1143; experiment: as above
Procedure, shortened: as §2

[27] = system: BT-474; experiment: as above
Procedure, shortened: as §2

[28] = system: CAL-120; experiment: as above
Procedure, shortened: as §2

[29] = system: DU-4475; experiment: as above
Procedure, shortened: as §2

[30] = system: MDA-MB-468; experiment: as above
Procedure, shortened: as §2

[31] = system: CAL-85-1; experiment: as above
Procedure, shortened: as §2

[32] = system: HDQ-P1; experiment: as above
Procedure, shortened: as §2

[33] = system: SK-BR-3; experiment: as above
Procedure, shortened: as §2

[34] = system: HCC1599; experiment: as above
Procedure, shortened: as §2

[35] = system: CAL-148; experiment: as above
Procedure, shortened: as §2

[36] = system: MDA-MB-436; experiment: as above
Procedure, shortened: as §2

[37] = system: CAL-51; experiment: as above
Procedure, shortened: as §2

| SMILES | normalised viability [1] | normalised viability [2] | normalised viability [3] | normalised viability [4] | normalised viability [5] | normalised viability [6] | normalised viability [7] | normalised viability [8] | normalised viability [9] | normalised viability [10] | normalised viability [11] | normalised viability [12] | normalised viability [13] | normalised viability [14] | normalised viability [15] | normalised viability [16] | normalised viability [17] | normalised viability [18] | normalised response [19] | normalised response [20] | normalised response [21] | normalised response [22] | normalised response [23] | normalised response [24] | normalised response [25] | normalised response [26] | normalised response [27] | normalised response [28] | normalised response [29] | normalised response [30] | normalised response [31] | normalised response [32] | normalised response [33] | normalised response [34] | normalised response [35] | normalised response [36] | normalised response [37] |
| --- | --- | --- | --- | --- | --- | --- | --- | --- | --- | --- | --- | --- | --- | --- | --- | --- | --- | --- | --- | --- | --- | --- | --- | --- | --- | --- | --- | --- | --- | --- | --- | --- | --- | --- | --- | --- | --- |
| CN(C)/N=N/c1[nH]cnc1C(N)=O [Dacarbazine] (1 nM) | 94.8% | 108% | 96.5% | 106% | 108% | 101% | 92.2% | 99.6% | 89.3% | 104% | 103% | 90.2% | 105% | 106% | 81.7% | 99.7% | 114% | 87.7% | 105% | 101% | 116% | 107% | 100% | 101% | 103% | 104% | 101% | 94.7% | 104% | 102% | 96.7% | 96% | 99.9% | 96.7% | 100% | 122% | 99.1% |
| N[C@@H](CSC(c1ccccc1)(c1ccccc1)c1ccccc1)C(=O)O [S-trityl-L-cysteine] (4 nM) | 104% | 89% | 88.6% | 106% | 85.8% | 105% | 143% | 91.1% | 115% | 116% | 101% | 122% | 96.6% | 88.2% | 108% | 112% | 109% | 91.3% | 100% | 92% | 107% | 95.5% | 97.6% | 96.5% | 96.9% | 97% | 105% | 106% | 95.7% | 101% | 101% | 103% | 99.6% | 87.5% | 103% | 85.6% | 81% |
| Cn1c(CCCC(=O)O)nc2cc(N(CCCl)CCCl)ccc21 [Bendamustine] (1 nM) | 116% | 103% | 109% | 104% | 106% | 94.8% | 112% | 108% | 90.5% | 111% | 110% | 90.2% | 65.9% | 93.2% | 107% | 108% | 109% | 102% | 106% | 103% | 127% | 99.8% | 103% | 101% | 106% | 104% | 107% | 99.5% | 108% | 108% | 105% | 102% | 117% | 99.5% | 116% | 97.5% | 75.8% |
| CO[C@H]1/C=C\C=C(/C)C(=O)NC2=CC(=O)C(NCCN(C)C)=C(C[C@@H](C)C[C@H](OC)[C@H](O)[C@@H](C)/C=C(\C)[C@@H]1OC(N)=O)C2=O [Alvespimycin] (0.1 nM) | 99.7% | 113% | 99.2% | 117% | 91.9% | 99.9% | 103% | 102% | 100% | 108% | 104% | 102% | 105% | 104% | 76% | 102% | 98% | 92.8% | 98.5% | 92.7% | 111% | 91.2% | 101% | 105% | 107% | 95.1% | 105% | 105% | 109% | 116% | 100% | 94.8% | 111% | 112% | 106% | 97.5% | 69.6% |
| COc1cc([C@@H]2c3cc4c(cc3[C@@H](O[C@@H]3O[C@@H]5CO[C@@H](C)O[C@H]5[C@H](O)[C@H]3O)[C@H]3COC(=O)[C@H]23)OCO4)cc(OC)c1O [Etoposide] (1 nM) | 90.8% | 86% | 103% | 97.3% | 96.9% | 100% | 107% | 91.5% | 98.1% | 112% | 98% | 99% | 96.3% | 97.5% | 121% | 110% | 105% | 87.8% | 113% | 98.8% | 106% | 105% | 110% | 114% | 107% | 110% | 103% | 101% | 106% | 101% | 98.6% | 105% | 109% | 107% | 104% | 128% | 134% |
| Cc1ccc(C(=O)Nc2ccc(CN3CCN(C)CC3)c(C(F)(F)F)c2)cc1C#Cc1cnc2cccnn12 [Ponatinib] (0.1 nM) | 107% | 87.3% | 92.5% | 111% | 98.3% | 103% | 103% | 90.1% | 97.1% | 97.2% | 104% | 101% | 109% | 91.9% | 104% | 98.5% | 103% | 87.5% | 99.3% | 95.3% | 101% | 102% | 102% | 109% | 98% | 95.9% | 102% | 103% | 101% | 105% | 103% | 104% | 101% | 99.4% | 105% | 105% | 95.4% |
| CCC1(c2ccc(N)cc2)CCC(=O)NC1=O (stereo unspecified) [Aminoglutethimide] (1 nM) | 85.4% | 97.3% | 89.7% | 107% | 93.2% | 108% | 109% | 91.1% | 110% | 98.7% | 97.1% | 115% | 92.7% | 90% | 95.7% | 107% | 98.2% | 86.1% | 110% | 96.2% | 98.6% | 96.9% | 97.8% | 106% | 99.8% | 97% | 103% | 106% | 99.1% | 104% | 109% | 98.4% | 103% | 91.7% | 108% | 87.3% | 112% |
| CNCc1ccc(-c2[nH]c3cc(F)cc4c3c2CCNC4=O)cc1 [Rucaparib] (1 nM) | 105% | 108% | 95.2% | 97.4% | 95.3% | 91.6% | 103% | 109% | 79.5% | 111% | 110% | 88.6% | 68.1% | 100% | 122% | 96.4% | 104% | 113% | 99.1% | 97.8% | 98.2% | 102% | 84.6% | 96.9% | 95.9% | 94.1% | 92.6% | 96.3% | 99.4% | 96.8% | 100% | 97.2% | 82.4% | 98.4% | 98.2% | 98.5% | 117% |
